Assay results taken from ChEMBL document CHEMBL1201862, “PubChem BioAssay data set” (2004).
The source made the active and inactive calls.

Key:
[1] = Luminescence-based dose response cell-based high throughput screening assay for cytotoxic compounds using the IEC-6 intestinal epithelial cell line. [Related pubchem assays: 1858 (Summary AID.), 1825 (Counterscreen.), 1907 (Confirmation screen.)]; format: functional
[2] = THP-1 cell cytotoxicity, dose response, cytotoxicity control for non-replicating M. tuberculosis project (AID 489025); format: functional
[3] = Luminescence Cell-Based Dose Retest to Confirm Inhibitors of Cancer Stem Cells. [Related pubchem assays (depositor defined):AID2717, AID2721]; format: functional; conditions: Homo sapiens
[4] = HepG2 cell cytotoxicity, dose response, cytotoxicity control for non-replicating M. tuberculosis project (AID 489018); format: functional; conditions: Mycobacterium tuberculosis
[5] = Vero E6 cell cytotoxicity, dose response, cytotoxicity control for non-replicating M. tuberculosis project, secondary assay (AID 492998); format: functional, VeroE6; conditions: Vero C1008
cells = format: functional
Paired box protein Pax-8 = Paired box protein Pax-8 (Homo sapiens, UniProt Q06710); assay: inhibitors of PAX8-driven TPO luciferase reporter, dose response, RMG-I cells, cherry-pick (AID 687027); format: functional, cell-based;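 further: luciferase reporter driven by Pax8 target thyroperoxidase promoter measured by SteadyGlo luminescence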
Bcl-2-like protein 10 = Bcl-2-like protein 10 (Homo sapiens, UniProt Q9HD36); assay: displacers of TR3 peptide from Bcl-B, primary screen, selectivity assay for Bfl-1 inhibitor project, biochemical, fluorescence polarization, FITC-TR3 peptide (AID 748);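 further: fluorescence polarization from a fluorescein-labelled TR3 peptide binding purified Bcl-B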
Large T antigen = Large T antigen (Simian virus 40, UniProt P03070); format: functional, Betapolyomavirus macacae;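 further: Confirmatory-stage PubChem screen for compounds that inhibit SV40 T antigen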
Estrogen receptor beta = Estrogen receptor beta (Homo sapiens, UniProt Q92731); assay: ERβ–SRC-3 coactivator interaction inhibitors, confirmation, orthogonal assay, biochemical, ELISA, streptavidin-HRP readout (AID 1060)
Nonstructural protein 1 = Nonstructural protein 1 (Influenza A virus, UniProt Q194T2); format: functional, Influenza A virus (A/California/07/2009(H1N1))
[6] = molecular target: T1, Apoptotic protease-activating factor 1 (Homo sapiens, UniProt O14727); format: functional
T1 sequence (O14727 whole entry): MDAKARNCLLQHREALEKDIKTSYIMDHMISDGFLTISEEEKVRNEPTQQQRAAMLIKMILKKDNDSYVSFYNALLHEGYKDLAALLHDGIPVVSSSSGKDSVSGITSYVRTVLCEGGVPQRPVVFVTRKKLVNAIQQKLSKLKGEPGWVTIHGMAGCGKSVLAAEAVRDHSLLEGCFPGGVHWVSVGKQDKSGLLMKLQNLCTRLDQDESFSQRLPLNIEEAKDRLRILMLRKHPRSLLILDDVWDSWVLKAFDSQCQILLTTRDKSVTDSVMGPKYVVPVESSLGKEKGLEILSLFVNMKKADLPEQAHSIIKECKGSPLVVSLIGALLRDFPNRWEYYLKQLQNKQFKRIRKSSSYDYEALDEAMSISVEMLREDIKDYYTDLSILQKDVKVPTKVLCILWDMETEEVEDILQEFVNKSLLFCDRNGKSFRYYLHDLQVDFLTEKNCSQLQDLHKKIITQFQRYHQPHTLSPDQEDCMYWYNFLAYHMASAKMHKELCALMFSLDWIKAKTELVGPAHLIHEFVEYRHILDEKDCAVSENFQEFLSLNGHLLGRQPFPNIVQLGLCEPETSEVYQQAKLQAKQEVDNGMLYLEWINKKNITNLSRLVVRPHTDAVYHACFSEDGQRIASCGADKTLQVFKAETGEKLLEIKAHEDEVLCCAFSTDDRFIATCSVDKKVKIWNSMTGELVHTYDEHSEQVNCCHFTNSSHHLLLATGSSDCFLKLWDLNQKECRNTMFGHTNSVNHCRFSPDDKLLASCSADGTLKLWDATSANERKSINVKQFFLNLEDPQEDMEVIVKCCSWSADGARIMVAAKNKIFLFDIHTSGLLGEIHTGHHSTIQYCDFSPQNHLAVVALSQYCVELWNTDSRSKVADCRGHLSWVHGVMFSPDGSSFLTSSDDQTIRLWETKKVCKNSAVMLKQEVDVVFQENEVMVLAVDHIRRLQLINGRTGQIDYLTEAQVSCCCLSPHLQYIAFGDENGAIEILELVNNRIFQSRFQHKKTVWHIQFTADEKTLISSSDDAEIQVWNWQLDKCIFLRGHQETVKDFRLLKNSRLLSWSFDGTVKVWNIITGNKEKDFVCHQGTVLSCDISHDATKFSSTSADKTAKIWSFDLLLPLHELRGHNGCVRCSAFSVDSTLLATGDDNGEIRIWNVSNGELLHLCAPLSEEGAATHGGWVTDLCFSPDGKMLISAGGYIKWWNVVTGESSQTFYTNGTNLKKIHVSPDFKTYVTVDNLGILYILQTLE

fMet-Leu-Phe receptor = molecular target: T2, fMet-Leu-Phe receptor (Homo sapiens, UniProt P21462); assay: FPR ligands, dose response (AID 519); format: functional
T2 sequence (P21462 whole entry): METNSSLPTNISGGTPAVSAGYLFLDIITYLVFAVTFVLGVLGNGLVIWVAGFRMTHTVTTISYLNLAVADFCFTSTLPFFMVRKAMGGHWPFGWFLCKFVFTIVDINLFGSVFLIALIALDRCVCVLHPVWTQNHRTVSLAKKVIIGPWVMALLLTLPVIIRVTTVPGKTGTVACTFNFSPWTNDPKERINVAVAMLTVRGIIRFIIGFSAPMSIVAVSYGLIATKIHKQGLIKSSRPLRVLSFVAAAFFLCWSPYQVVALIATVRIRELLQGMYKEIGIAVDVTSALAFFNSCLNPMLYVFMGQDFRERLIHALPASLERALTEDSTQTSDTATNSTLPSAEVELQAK

NADPH oxidase 1 = NADPH oxidase 1 (Homo sapiens, UniProt Q9Y5S8); assay: Luminescence-based cell-based dose response assay to identify inhibitors of NADPH oxidase 1 (NOX1).; format: functional
[7] = molecular target: Sphingosine 1-phosphate receptor 2 (Homo sapiens, UniProt O95136); assay: Dose Response Cell Based Assay for Agonists of the S1P2 Receptor of Purchased Analogues. [Related pubchem assays: 729, 843, 854, 736 ]; format: functional
[8] = cytotoxicity in HPDE-C7 cells, cell-based, fluorescence, HTS (AID 430); format: functional; conditions: Homo sapiens
[9] = cytotoxicity in KRAS-transformed pancreatic duct cells, primary screen, cell-based, fluorescence, HTS (AID 431); format: functional; conditions: Homo sapiens;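 further: cell line used: HPDE-C7K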

Chain of Sphingosine 1-phosphate receptor 2 (O95136 whole entry): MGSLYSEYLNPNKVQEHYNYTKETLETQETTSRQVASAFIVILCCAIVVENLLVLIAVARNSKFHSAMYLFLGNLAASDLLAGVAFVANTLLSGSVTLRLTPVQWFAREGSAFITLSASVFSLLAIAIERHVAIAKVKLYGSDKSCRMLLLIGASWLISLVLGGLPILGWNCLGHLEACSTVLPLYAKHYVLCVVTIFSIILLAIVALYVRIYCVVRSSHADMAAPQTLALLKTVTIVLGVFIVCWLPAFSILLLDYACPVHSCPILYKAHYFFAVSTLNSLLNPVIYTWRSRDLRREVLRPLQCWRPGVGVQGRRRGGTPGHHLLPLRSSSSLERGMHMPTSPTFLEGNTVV
Chain of Estrogen receptor beta (Q92731 whole entry): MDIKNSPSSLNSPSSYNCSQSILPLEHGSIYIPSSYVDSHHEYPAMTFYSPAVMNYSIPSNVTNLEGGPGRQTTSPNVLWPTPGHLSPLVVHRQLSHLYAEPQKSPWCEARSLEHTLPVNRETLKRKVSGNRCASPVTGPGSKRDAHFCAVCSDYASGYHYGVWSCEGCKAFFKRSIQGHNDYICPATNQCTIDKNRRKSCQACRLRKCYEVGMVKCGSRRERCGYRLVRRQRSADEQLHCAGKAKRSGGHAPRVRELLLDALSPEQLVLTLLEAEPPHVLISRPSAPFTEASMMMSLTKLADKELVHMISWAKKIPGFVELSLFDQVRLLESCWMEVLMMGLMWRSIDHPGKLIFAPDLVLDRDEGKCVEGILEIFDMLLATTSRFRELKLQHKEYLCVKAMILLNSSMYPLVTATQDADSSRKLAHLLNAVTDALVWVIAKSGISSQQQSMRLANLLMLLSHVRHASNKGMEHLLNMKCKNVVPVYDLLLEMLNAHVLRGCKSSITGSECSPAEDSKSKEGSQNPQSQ
Chain of NADPH oxidase 1 (Q9Y5S8 whole entry): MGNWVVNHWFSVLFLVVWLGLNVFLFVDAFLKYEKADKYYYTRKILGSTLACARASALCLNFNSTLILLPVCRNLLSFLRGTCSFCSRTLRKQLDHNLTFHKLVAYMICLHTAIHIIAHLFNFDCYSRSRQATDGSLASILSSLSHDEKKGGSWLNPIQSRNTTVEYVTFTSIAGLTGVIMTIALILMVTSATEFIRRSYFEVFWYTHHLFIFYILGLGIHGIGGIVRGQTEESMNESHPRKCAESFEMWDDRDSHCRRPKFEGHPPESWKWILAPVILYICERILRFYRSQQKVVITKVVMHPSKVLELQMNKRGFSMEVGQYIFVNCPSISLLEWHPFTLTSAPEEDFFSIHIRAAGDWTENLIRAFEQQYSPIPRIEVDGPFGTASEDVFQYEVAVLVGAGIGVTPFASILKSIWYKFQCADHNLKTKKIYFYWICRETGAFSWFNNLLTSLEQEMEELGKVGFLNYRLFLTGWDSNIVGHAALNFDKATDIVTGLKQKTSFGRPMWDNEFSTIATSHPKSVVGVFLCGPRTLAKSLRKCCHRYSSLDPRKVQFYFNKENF
Chain of Large T antigen (P03070 whole entry): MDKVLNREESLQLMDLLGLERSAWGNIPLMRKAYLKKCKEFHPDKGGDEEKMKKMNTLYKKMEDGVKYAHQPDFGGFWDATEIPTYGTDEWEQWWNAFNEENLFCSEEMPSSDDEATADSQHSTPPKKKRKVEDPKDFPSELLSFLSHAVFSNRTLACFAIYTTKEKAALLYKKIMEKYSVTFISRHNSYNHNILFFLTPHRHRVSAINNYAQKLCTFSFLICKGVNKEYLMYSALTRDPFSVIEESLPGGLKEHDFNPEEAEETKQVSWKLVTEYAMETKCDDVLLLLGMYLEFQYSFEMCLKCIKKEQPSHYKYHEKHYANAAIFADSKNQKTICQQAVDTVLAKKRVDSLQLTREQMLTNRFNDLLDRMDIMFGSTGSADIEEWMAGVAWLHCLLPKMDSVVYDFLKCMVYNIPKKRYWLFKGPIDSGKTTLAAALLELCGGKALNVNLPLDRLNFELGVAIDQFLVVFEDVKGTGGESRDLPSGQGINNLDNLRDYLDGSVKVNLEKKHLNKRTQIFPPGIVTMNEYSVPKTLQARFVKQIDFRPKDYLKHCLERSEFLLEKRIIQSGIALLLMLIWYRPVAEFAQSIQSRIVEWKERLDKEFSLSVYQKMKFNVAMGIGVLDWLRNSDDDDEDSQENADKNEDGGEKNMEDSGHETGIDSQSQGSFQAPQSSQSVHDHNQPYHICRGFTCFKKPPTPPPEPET
Chain of Bcl-2-like protein 10 (Q9HD36 whole entry): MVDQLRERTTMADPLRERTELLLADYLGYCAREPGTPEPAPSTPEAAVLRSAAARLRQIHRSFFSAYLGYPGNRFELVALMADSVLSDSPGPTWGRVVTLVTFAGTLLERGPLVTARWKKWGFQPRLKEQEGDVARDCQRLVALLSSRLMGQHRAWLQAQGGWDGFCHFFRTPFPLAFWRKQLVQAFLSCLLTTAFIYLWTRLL
Chain of Nonstructural protein 1 (Q194T2 whole entry): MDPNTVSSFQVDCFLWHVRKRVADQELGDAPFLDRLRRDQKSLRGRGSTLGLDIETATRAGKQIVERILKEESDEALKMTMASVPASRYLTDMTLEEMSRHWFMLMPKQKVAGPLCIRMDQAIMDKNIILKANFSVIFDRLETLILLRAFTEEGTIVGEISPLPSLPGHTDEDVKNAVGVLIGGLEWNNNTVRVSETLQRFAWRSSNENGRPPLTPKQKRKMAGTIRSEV
Chain of Paired box protein Pax-8 (Q06710 whole entry): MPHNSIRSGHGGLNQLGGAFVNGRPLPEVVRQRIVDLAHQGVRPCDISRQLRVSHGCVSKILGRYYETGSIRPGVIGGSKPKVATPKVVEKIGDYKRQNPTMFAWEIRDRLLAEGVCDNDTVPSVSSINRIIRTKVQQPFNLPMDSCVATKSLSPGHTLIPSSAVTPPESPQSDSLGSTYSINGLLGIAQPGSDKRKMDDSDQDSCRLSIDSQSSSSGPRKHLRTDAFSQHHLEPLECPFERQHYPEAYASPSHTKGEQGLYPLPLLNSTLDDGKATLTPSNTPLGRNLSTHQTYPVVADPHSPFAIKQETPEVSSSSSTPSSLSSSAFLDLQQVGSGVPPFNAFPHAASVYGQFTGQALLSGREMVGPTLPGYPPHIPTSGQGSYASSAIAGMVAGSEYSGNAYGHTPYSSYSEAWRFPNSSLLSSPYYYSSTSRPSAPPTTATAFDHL

For `O=C(Nc1ccc(N2CCN(C(=O)c3cccs3)CC2)cc1)c1ccc([N+](=O)[O-])o1`, the IC50 [1] was 1.77 µM (active), the CC50 [2] was 1.18 µM (active) and the AC50 [3] was 1.5 µM (active). For the same compound, the CC50 [4] was > 20 µM (active), the CC50 [5] was 1.46 µM (active) and the IC50 (cells) was < 0.1 µM (active). For the same compound, the AC50 (Paired box protein Pax-8) was 1.96 µM (active).
For `CCOC(=O)N1CCN(c2cc(NCCC(=O)O)c3c4c(onc24)-c2ccccc2C3=O)CC1`, the IC50 (Bcl-2-like protein 10) was 7.52 µM (active), the IC50 (Large T antigen) was > 100 µM (active) and the IC50 (Estrogen receptor beta) was 5.41 µM (not active). For the same compound, the IC50 (Nonstructural protein 1) was 20.3 µM (active), the IC50 [6] was 25.6 µM (active) and the Ki (fMet-Leu-Phe receptor) was > 66.7 µM (inactive).
In the case of `CC(=O)N(C)c1ccc(NC(=O)Nc2ccc(Cl)cc2)cc1`, the IC50 (NADPH oxidase 1) is reported as > 20 µM (not active).
For `CCCNC(=O)CN(C)CC(=O)c1cc(C)n(Cc2ccccc2)c1C`, the EC50 [7] was > 30 µM (not active).
With `COc1cccc(C2C=C(c3ccc(OC)cc3OC)Nc3nnnn32)c1` (configuration not stated) the EC50 [8] was 9.03 µM (active) and the EC50 [9] was 8.72 µM (active).
